Laboratory results taken from patent publication US7041687B2, “Indazole compounds useful as protein kinase inhibitors” (Vertex Pharmaceuticals Incorporated, priority 2002, dated 2006).

target: AKT-3 (Homo sapiens, UniProt Q9Y243); assay: AKT-3 inhibition assay (standard coupled enzyme assay); assay type: biochemical; conditions: 170 μM ATP, 200 μM peptide, 45 nM AKT, 30° C.
Sequence (Q9Y243 whole entry): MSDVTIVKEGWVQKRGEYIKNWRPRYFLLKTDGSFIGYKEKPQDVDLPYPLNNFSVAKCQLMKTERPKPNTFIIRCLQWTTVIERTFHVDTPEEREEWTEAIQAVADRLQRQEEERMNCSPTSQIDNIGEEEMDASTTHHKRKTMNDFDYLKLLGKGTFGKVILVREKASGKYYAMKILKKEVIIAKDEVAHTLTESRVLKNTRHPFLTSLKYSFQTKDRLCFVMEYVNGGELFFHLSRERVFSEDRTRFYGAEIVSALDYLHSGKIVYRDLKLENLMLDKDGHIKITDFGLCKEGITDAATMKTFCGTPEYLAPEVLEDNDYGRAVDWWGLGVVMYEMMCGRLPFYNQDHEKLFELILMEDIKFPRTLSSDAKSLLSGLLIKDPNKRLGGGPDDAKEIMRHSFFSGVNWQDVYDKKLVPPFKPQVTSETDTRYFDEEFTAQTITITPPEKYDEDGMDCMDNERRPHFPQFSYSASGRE

| SMILES | Ki |
| --- | --- |
| O=C(Cc1ccc(Cl)cc1)Nc1ccc2[nH]ncc2c1 [Compound I-5] | 1 to 10 µM |
| O=C(Cc1ccc(Cl)c(Cl)c1)Nc1ccc2[nH]ncc2c1 [Compound I-16] | 1 to 10 µM |
| O=C(Nc1ccc2[nH]ncc2c1)C(O)c1ccc(Br)cc1 (stereo not shown) [Compound I-37] | 10 to 20 µM |
| N[C@H](C(=O)Nc1ccc2[nH]ncc2c1)c1ccccc1 [Compound I-49] | 1 to 10 µM |
| NC(C(=O)Nc1ccc2[nH]ncc2c1)c1ccc(Cl)cc1 (stereo not shown) [Compound I-50] | 1 to 10 µM |
| NC(C(=O)Nc1ccc2[nH]ncc2c1)c1cccc(C(F)(F)F)c1 (stereo not shown) [Compound I-53] | 1 to 10 µM |
| NC(C(=O)Nc1ccc2[nH]ncc2c1)c1ccc2ccccc2c1 (stereo not shown) [Compound I-58] | 1 to 10 µM |
| NCCCNC(C(=O)Nc1ccc2[nH]ncc2c1)c1cccc(Cl)c1 (stereo not shown) [Compound I-60] | < 1 µM |
| CNCCNC(C(=O)Nc1ccc2[nH]ncc2c1)c1cccc(Cl)c1 (stereo not shown) [Compound I-61] | < 1 µM |
| CN(C)CCNC(C(=O)Nc1ccc2[nH]ncc2c1)c1cccc(Cl)c1 (stereo not shown) [Compound I-62] | < 1 µM |
| CCNCCNC(C(=O)Nc1ccc2[nH]ncc2c1)c1cccc(Cl)c1 (stereo not shown) [Compound I-63] | 1 to 10 µM |
| O=C(Nc1ccc2[nH]ncc2c1)C(NCCNCc1ccccc1)c1cccc(Cl)c1 (stereo not shown) [Compound I-64] | < 1 µM |
| O=C(Nc1ccc2[nH]ncc2c1)C(NCc1ccccn1)c1cccc(Cl)c1 (stereo not shown) [Compound I-65] | 10 to 20 µM |
| O=C(Nc1ccc2[nH]ncc2c1)C(NCCc1ccccn1)c1cccc(Cl)c1 (stereo not shown) [Compound I-66] | 10 to 20 µM |
| CCCNCCCNC(C(=O)Nc1ccc2[nH]ncc2c1)c1cccc(Cl)c1 (stereo not shown) [Compound I-68] | 1 to 10 µM |
| NCCNC(C(=O)Nc1ccc2[nH]ncc2c1)c1ccc(Cl)cc1 (stereo not shown) [Compound I-70] | < 1 µM |
| COc1ccc(C(NCCN)C(=O)Nc2ccc3[nH]ncc3c2)cc1Cl (stereo not shown) [Compound I-71] | 1 to 10 µM |
| NCCNC(C(=O)Nc1ccc2[nH]ncc2c1)c1ccc(Oc2ccccc2)c(Cl)c1 (stereo not shown) [Compound I-72] | 1 to 10 µM |
| NCC(=O)NC(C(=O)Nc1ccc2[nH]ncc2c1)c1cccc(Cl)c1 (stereo not shown) [Compound I-74, 2-(2-Amino-acetylamino)-2-(3-chloro-phenyl)-N-(1H-indazol-5-yl)-acetamide] | < 1 µM |
| CCc1n[nH]c2ccc(NC(=O)[C@H](O)c3cccc(Cl)c3)cc12 [Compound I-79] | 10 to 20 µM |
| Nc1n[nH]c2ccc(NC(=O)Cc3cccc(Cl)c3)cc12 [Compound I-82] | 10 to 20 µM |
| Nc1n[nH]c2ccc(NC(=O)Cc3ccc(Cl)c(Cl)c3)cc12 [Compound I-83] | 1 to 10 µM |
| COc1ccc(Br)cc1CC(=O)Nc1ccc2[nH]ncc2c1 [Compound I-94] | 10 to 20 µM |

| SMILES | Ki |
| --- | --- |
| N[C@@H](Cc1ccc(Cl)c(Cl)c1)C(=O)Nc1ccc2[nH]ncc2c1 [Compound I-95] | 10 to 20 µM |
| CC(=O)Nc1cccc(C(CCN)C(=O)Nc2ccc3[nH]ncc3c2)c1 (stereo not shown) [Compound I-111] | 1 to 10 µM |
| Cc1cccc(C(CCN)C(=O)Nc2ccc3[nH]ncc3c2)c1 (stereo not shown) [Compound I-112] | < 1 µM |
| NCCC(C(=O)Nc1ccc2[nH]ncc2c1)c1cccc(OCc2ccccc2)c1 (stereo not shown) [Compound I-114] | 1 to 10 µM |
| NCCC(C(=O)Nc1ccc2[nH]ncc2c1)c1cccc(O)c1 (stereo not shown) [Compound I-115] | < 1 µM |
| NCC(C(=O)Nc1cc(-c2ccccc2)c2[nH]ncc2c1)c1ccc(Cl)c(Cl)c1 (stereo not shown) [Compound I-146] | 10 to 20 µM |
| COC(=O)NCCC(C(=O)Nc1ccc2[nH]ncc2c1)c1ccc(Cl)c(Cl)c1 (stereo not shown) [Compound I-151] | 1 to 10 µM |
| CNC(=O)NCCC(C(=O)Nc1ccc2[nH]ncc2c1)c1ccc(Cl)c(Cl)c1 (stereo not shown) [Compound I-152] | 1 to 10 µM |
| NCC(C(=O)Nc1ccc2[nH]ncc2c1)c1cccc(Cl)c1 (stereo not shown) [Compound I-157] | 1 to 10 µM |
| NCCC(C(=O)Nc1ccc2[nH]nc(NC(=O)Cc3ccccc3)c2c1)c1ccc(Cl)c(Cl)c1 (stereo not shown) [Compound I-192] | 1 to 10 µM |
| NCCC(C(=O)Nc1ccc2[nH]nc(NC(=O)c3cccc(CN4CCCCC4)c3)c2c1)c1ccc(Cl)c(Cl)c1 (stereo not shown) [Compound I-214] | < 1 µM |
| NCCC(C(=O)Nc1ccc2[nH]nc(NC(=O)c3cccc(CN4CCOCC4)c3)c2c1)c1ccc(Cl)c(Cl)c1 (stereo not shown) [Compound I-215] | < 1 µM |
| CCN(CC)Cc1cccc(C(=O)Nc2n[nH]c3ccc(NC(=O)C(CCN)c4ccc(Cl)c(Cl)c4)cc23)c1 (stereo not shown) [Compound I-216] | < 1 µM |
| NCCC(C(=O)Nc1ccc2[nH]nc(NC(=O)c3cccc(Cn4ccnc4)c3)c2c1)c1ccc(Cl)c(Cl)c1 (stereo not shown) [Compound I-217] | < 1 µM |
| NCCC(C(=O)Nc1ccc2[nH]nc(NC(=O)c3cccc(CN4CCNCC4)c3)c2c1)c1ccc(Cl)c(Cl)c1 (stereo not shown) [Compound I-218] | < 1 µM |
| NCCC(C(=O)Nc1ccc2[nH]nc(NC(=O)c3cccc(SC(F)F)c3)c2c1)c1ccc(Cl)c(Cl)c1 (stereo not shown) [Compound I-219] | < 1 µM |
| CC(=O)c1cccc(C(=O)Nc2n[nH]c3ccc(NC(=O)C(CCN)c4ccc(Cl)c(Cl)c4)cc23)c1 (stereo not shown) [Compound I-220] | < 1 µM |
| CS(=O)(=O)c1cccc(C(=O)Nc2n[nH]c3ccc(NC(=O)C(CCN)c4ccc(Cl)c(Cl)c4)cc23)c1 (stereo not shown) [Compound I-221] | < 1 µM |
| NCCC(C(=O)Nc1ccc2[nH]nc(-c3cccc(-c4ccccc4)c3)c2c1)c1ccc(Cl)c(Cl)c1 (stereo not shown) [Compound I-223] | < 1 µM |
| NCCC(C(=O)Nc1ccc2[nH]nc(-c3cccc(C(F)(F)F)c3)c2c1)c1ccc(Cl)c(Cl)c1 (stereo not shown) [Compound I-224] | < 1 µM |
| CC(=O)c1n[nH]c2ccc(NC(=O)C(CN)c3ccc(Cl)c(Cl)c3)cc12 (stereo not shown) [Compound I-255] | 1 to 10 µM |
| NCCC(C(=O)Nc1ccc2[nH]nc(-c3cccc(OC(F)(F)F)c3)c2c1)c1ccc(Cl)c(Cl)c1 (stereo not shown) [Compound I-256] | < 1 µM |

target: T1, PDK-1 (Homo sapiens, UniProt O15530); assay: PDK-1 inhibition assay (radioactive-phosphate incorporation); assay type: biochemical; conditions: 40 μM ATP, 65 μM PDKtide, 25 nM PDK-1, 30° C.
T1 sequence (O15530 1-556): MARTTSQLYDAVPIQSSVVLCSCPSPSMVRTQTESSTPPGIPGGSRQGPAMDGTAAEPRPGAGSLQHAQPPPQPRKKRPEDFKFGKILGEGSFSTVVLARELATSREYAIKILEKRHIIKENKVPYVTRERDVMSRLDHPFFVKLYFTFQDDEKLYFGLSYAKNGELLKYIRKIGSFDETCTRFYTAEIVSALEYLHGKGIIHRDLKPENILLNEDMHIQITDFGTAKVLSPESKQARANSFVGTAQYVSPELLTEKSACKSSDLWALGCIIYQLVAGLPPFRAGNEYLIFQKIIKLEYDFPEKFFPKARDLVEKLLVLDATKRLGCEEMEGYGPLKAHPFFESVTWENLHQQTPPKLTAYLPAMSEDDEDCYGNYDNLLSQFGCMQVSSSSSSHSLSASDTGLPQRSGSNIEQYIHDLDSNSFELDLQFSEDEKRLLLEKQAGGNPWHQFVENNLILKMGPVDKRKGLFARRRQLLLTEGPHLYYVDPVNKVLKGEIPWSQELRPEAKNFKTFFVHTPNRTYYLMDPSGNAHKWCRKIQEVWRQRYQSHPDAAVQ
Description: Compounds were screened for their ability to inhibit PDK-1 using a radioactive-phosphate incorporation assay (Pitt and Lee, J. Biomol. Screen., (1996) 1, 47). Assays were carried out in a mixture of 100 mM HEPES (pH 7.5), 10 mM MgCl2, 25 mM NaCl, 2 mM DTT. Final substrate concentrations in the assay were 40 μM ATP (Sigma Chemicals) and 65 μM peptide (PDKtide, Upstate, Lake Placid, N.Y.). Assays were carried out at 30° C. and 25 nM PDK-1 in the presence of ˜27.5 nCi/μL of [γ-^32P]ATP (Amersham Pharmacia Biotech, Amersham, UK). An assay stock buffer solution was prepared containing all of the reagents listed above, with the exception of ATP, and the test compound of interest. 15 μl of the stock solution was placed in a 96 well plate followed by addition of 1 μl of 0.5 mM DMSO stock containing the test compound (final compound concentration 25 μM, final DMSO concentration 5%). The plate was preincubated for about 10 minutes at 30° C. and the reaction initiated by addition of 4 μl ATP (final concentration 40 μM).
The reaction was stopped after 10 minutes by the addition of 100 μL 100 mM phosphoric acid, 0.01% Tween-20. A phosphocellulose 96 well plate (Millipore, Cat no. MAPHNOB50) was pretreated with 100 μL 100 mM phosphoric acid, 0.01% Tween-20 prior to the addition of the reaction mixture (100 μL). The spots were left to soak for at least 5 minutes, prior to wash steps (4×200 μL 100 mM phosphoric acid, 0.01% Tween-20). Alter drying, 20 μL Optiphase ‘SuperMix’ liquid scintillation cocktail (Perkin Elmer) was added to the well prior to scintillation counting (1450 Microbeta Liquid Scintillation Counter, Wallac).

| SMILES | Ki |
| --- | --- |
| O=C(Cc1ccc(Cl)c(Cl)c1)Nc1ccc2[nH]ncc2c1 [Compound I-16] | > 3 µM |
| CC(=O)O[C@@H](C(=O)Nc1ccc2[nH]ncc2c1)c1ccccc1 [Compound I-33] | > 3 µM |
| CC(=O)Nc1cccc(C(CCN)C(=O)Nc2ccc3[nH]ncc3c2)c1 (stereo not shown) [Compound I-111] | > 3 µM |
| Cc1cccc(C(CCN)C(=O)Nc2ccc3[nH]ncc3c2)c1 (stereo not shown) [Compound I-112] | 1 to 3 µM |
| NCCC(C(=O)Nc1ccc2[nH]ncc2c1)c1cccc(OCc2ccccc2)c1 (stereo not shown) [Compound I-114] | > 3 µM |
| NCCC(C(=O)Nc1cc(-c2ccccc2Cl)c2[nH]ncc2c1)c1ccc(Cl)c(Cl)c1 (stereo not shown) [Compound I-148] | > 3 µM |
| NCCC(C(=O)Nc1ccc2[nH]nc(-c3cccc(-c4ccccc4)c3)c2c1)c1ccccc1 (stereo not shown) [Compound I-228] | 1 to 3 µM |
| CC(C)c1cccc(-c2n[nH]c3ccc(NC(=O)C(CCN)c4ccccc4)cc23)c1 (stereo not shown) [Compound I-229] | > 3 µM |
| Cc1cccc(-c2n[nH]c3ccc(NC(=O)C(CCN)c4ccccc4)cc23)c1 (stereo not shown) [Compound I-238] | < 1 µM |
| NCCC(C(=O)Nc1ccc2[nH]nc(-c3cccc(OC(F)(F)F)c3)c2c1)c1ccccc1 (stereo not shown) [Compound I-239] | 1 to 3 µM |
| NCCC(C(=O)Nc1ccc2[nH]nc(-c3cccc(C(N)=O)c3)c2c1)c1ccccc1 (stereo not shown) [Compound I-248] | < 1 µM |
| NCCC(C(=O)Nc1ccc2[nH]nc(-c3ccc(C(N)=O)cc3)c2c1)c1ccccc1 (stereo not shown) [Compound I-262] | < 1 µM |
| NCCC(C(=O)Nc1ccc2[nH]nc(-c3ccc(CCC(=O)O)cc3)c2c1)c1ccccc1 (stereo not shown) [Compound I-264] | < 1 µM |
| NCCC(C(=O)Nc1ccc2[nH]nc(-c3ccc(Oc4ccccc4)cc3)c2c1)c1ccccc1 (stereo not shown) [Compound I-265] | < 1 µM |
| NCCC(C(=O)Nc1ccc2[nH]nc(NC(=O)c3cccs3)c2c1)c1cccnc1 (stereo not shown) [Compound I-272] | < 1 µM |
| NCCC(C(=O)Nc1ccc2[nH]ncc2c1)c1cccc(O)c1 (stereo not shown) [Compound I-1007] | 1 to 3 µM |

| SMILES | Ki |
| --- | --- |
| O=C(CCC(C(=O)N1CCN(Cc2ccccc2)CC1)c1ccccc1)Nc1ccc2[nH]ncc2c1 (stereo not shown) [Compound I-1015] | > 3 µM |
| COc1cccc(C(CCNCc2ccccc2)C(=O)Nc2ccc3[nH]nc(C)c3c2)c1 (stereo not shown) [Compound I-1016] | > 3 µM |
| CNc1n[nH]c2ccc(NC(=O)C(CCN)c3ccccc3OC)cc12 (stereo not shown) [Compound I-1019] | > 3 µM |
| CC(=O)OC(C(=O)Nc1ccc2[nH]ncc2c1)c1ccccc1 (stereo not shown) [Compound I-1020] | > 3 µM |
| Cc1n[nH]c2ccc(NC(=O)CCC(NCc3ccccc3)c3ccccc3F)cc12 (stereo not shown) [Compound I-1024] | > 3 µM |
| O=C(Nc1ccc2[nH]ncc2c1)C(CCNCc1ccccc1)c1ccccc1F (stereo not shown) [Compound I-1025] | > 3 µM |
| NCCC(C(=O)Nc1ccc2[nH]nc(-c3ccc(F)cc3)c2c1)c1ccccc1 (stereo not shown) [Compound I-1027] | < 1 µM |
| COc1cccc(C(CCN)C(=O)Nc2ccc3[nH]nc(Nc4cccc(Cl)c4)c3c2)c1 (stereo not shown) [Compound I-1029] | > 3 µM |
| COc1cccc(C(CCN)C(=O)Nc2ccc3[nH]nc(Nc4cccc(C(N)=O)c4)c3c2)c1 (stereo not shown) [Compound I-1030] | > 3 µM |
| COc1cccc(C(CCN)C(=O)Nc2ccc3[nH]nc(Nc4cccc(C#N)c4)c3c2)c1 (stereo not shown) [Compound I-1031] | > 3 µM |
| NCCC(C(=O)Nc1ccc2[nH]ncc2c1)c1ccccc1F (stereo not shown) [Compound I-1032] | < 1 µM |
| Cc1n[nH]c2ccc(NC(=O)C(CCN)c3ccsc3)cc12 (stereo not shown) [Compound I-1035] | < 1 µM |
| NCCC(C(=O)Nc1ccc2[nH]nc(C(=O)NCc3ccccc3)c2c1)c1ccccc1 (stereo not shown) [Compound I-1036] | 1 to 3 µM |
| Cc1n[nH]c2ccc(NC(=O)C(CCN)c3ccco3)cc12 (stereo not shown) [Compound I-1037] | > 3 µM |
| NCCC(C(=O)Nc1ccc2[nH]nc(CNC(=O)c3ccccc3)c2c1)c1ccccc1 (stereo not shown) [Compound I-1042] | > 3 µM |
